Where two headings read alike, the source gives them in different places. Bridge positions count the residues as written; N and C are the ends. Peptide text beside a SMILES is read from it.
Tests used:
rat ROMK = target: T1, rat ROMK (Rattus norvegicus, UniProt P35560); assay: Whole-cell patch-clamp of ROMK currents in 208–4 cells; format: cell-based; settings: for inhibition at 1 µM: blockade at 1 μM estimated from fitted Hill curve (four parameters), n = 3–6, read-out: Activity (ROMK channel blocking activity, percentage of blockade at 1 μM); for IC50: 25°C
T1 construct: expressed in transfected cells; host or cells: 293T cell line 208-4 (lentiviral transduction, GFP coexpressed)
T1 sequence (P35560 1-391): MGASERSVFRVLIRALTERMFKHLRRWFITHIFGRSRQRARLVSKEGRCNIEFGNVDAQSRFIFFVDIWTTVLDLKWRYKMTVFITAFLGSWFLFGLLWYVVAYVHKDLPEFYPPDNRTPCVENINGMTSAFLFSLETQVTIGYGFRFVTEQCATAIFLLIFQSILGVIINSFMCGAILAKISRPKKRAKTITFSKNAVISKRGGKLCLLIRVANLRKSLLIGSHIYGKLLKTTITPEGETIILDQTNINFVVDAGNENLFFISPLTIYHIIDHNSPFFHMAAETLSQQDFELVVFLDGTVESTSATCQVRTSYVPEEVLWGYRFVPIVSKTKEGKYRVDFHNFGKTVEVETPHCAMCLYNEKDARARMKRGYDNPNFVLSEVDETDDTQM
Procedure, shortened: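 ROMK stably expressed in 208–4 cells; GIRK transiently in 293T, recorded 24 h post-transfection; 25°C, Tyrode (high-K+ 50 mM for GIRK), K-aspartate/KCl pipette with 3 mM MgATP. Steps −150 to 10 mV from −70 mV; currents 60 s after peptide; conductance from I-V slope −140 to −100 mV, Ba2+-resistant current subtracted, normalized to 0 μM TPN.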

mouse GIRK1/2 = target: T2, mouse GIRK1/2 (Mus musculus, UniProt P48542+P63250); assay: Whole-cell patch-clamp of GIRK1/2 in transfected 293T cells; format: cell-based
T2 construct: expressed in transfected cells; host or cells: 293T cells, transient calcium phosphate transfection, pCMV6 plasmid
T2 sequence (P63250 1-501): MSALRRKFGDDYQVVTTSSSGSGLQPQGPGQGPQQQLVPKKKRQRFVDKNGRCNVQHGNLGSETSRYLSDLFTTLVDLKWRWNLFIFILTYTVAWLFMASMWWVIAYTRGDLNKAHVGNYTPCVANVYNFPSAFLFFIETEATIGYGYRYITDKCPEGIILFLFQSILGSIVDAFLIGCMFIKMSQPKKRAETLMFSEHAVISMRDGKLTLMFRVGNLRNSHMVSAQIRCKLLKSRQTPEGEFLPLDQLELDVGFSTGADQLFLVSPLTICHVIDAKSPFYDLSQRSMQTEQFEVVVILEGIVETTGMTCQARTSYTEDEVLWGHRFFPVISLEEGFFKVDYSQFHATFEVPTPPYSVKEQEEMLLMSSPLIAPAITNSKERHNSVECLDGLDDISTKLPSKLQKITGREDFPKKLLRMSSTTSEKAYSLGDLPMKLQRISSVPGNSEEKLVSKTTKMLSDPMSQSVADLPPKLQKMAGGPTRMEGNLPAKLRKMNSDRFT
T2 sequence (P48542 1-425): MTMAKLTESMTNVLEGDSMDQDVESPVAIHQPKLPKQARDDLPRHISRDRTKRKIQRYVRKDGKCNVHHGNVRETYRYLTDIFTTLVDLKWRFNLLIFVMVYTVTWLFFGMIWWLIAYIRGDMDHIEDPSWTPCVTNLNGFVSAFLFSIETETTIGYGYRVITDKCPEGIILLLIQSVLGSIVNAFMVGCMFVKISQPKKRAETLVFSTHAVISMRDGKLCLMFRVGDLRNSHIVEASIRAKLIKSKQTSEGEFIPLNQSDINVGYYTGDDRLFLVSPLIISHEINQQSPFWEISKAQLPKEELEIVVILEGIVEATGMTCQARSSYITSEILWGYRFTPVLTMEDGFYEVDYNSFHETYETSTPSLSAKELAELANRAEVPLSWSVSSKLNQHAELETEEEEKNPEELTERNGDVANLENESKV
From the text: The cDNAs for rat ROMK and mouse GIRK1, 2, and 4 were generously donated by Drs Mikio Hayashi (Kansai Medical University) and David Weaver (Vanderbilt University). The ROMK channels were stably expressed by a cell line, 208–4, which was transduced with lentiviral vectors coexpressing the channel and green fluorescent protein (GFP) as described previously. The GIRK genes, cloned in a pCMV6 plasmid (Origene Technologies Inc, Rockville, MD), were transiently expressed in 293T cells with calcium phosphate transfection. GIRK channel currents were recorded 24 h after transfection.
Cells grown on small cover glasses (3 × 18 mm) were placed in a recording chamber. Whole-cell currents were recorded in Tyrode solution using an Axopatch 200B amplifier (Axon Instruments, Foster City, CA) at 25°C. Tyrode solution contained (in mM): NaCl 140, KCl 5.4, NaH2PO4 0.33, CaCl2 2, MgCl2 1, HEPES 5, and glucose 5.5 (pH 7.4 adjusted with NaOH). […] Whole-cell currents were recorded 60 sec after the peptide application and those from 100 to 300 msec of the step pulses were averaged. […] Whole-cell conductance was calculated as the slope of the current-voltage (I-V) relationship from -140 mV to -100 mV and normalized to the initial value (0 μM TPN), in which BaCl2-resistant current was subtracted and indicted as a percentage.

SMILES	inhibition at 1 µM (rat ROMK; whole-cell conductance) [%]	IC50 (rat ROMK; peptide pre-treated with protein disulfide isomerase, 30 min, n = 4 (Fig 2F), read-out: IC50, ROMK current, PDI-treated peptide) [nM]	IC50 (rat ROMK; whole-cell conductance, 60 sec after application, n = 3 (Fig 2E), read-out: IC50, ROMK current) [nM]	IC50 (mouse GIRK1/2; 293T cells transiently expressing mouse GIRK1/2, high K+ Tyrode solution (Fig 7), read-out: IC50, GIRK1/2 conductance) [nM]	difference in IC50, GIRK1/2 over ROMK (mouse GIRK1/2; ratio of IC50 GIRK1/2 to IC50 ROMK) [fold]
CC[C@H](C)[C@@H]1NC(=O)[C@H](CCCNC(=N)N)NC(=O)[C@H](CCCNC(=N)N)NC(=O)[C@H](CC(N)=O)NC(=O)[C@@H]2CSSC[C@@H](C(=O)NCC(=O)N[C@@H](CCCCN)C(=O)N[C@@H](CCCCN)C(N)=O)NC(=O)[C@H](CCCCN)NC(=O)[C@H](CCCCN)NC(=O)[C@H](Cc3c[nH]c4ccccc34)NC(=O)[C@H](CSSC[C@H](NC(=O)[C@H](CC(C)C)NC(=O)[C@H](C)N)C(=O)N[C@@H](CC(N)=O)C(=O)N2)NC(=O)[C@H](CCC(N)=O)NC(=O)[C@H](Cc2c[nH]cn2)NC(=O)[C@@H]2CCCN2C(=O)[C@H]([C@@H](C)CC)NC1=O [Peptide 2, TPN-RQ] (H-ALCNCNRRIIPHQCWKKCGKK-NH2; disulfide 3-14, 5-18)	> 80	240	170	610	–
CC[C@H](C)[C@@H]1NC(=O)[C@H](CCCNC(=N)N)NC(=O)[C@H](CC(N)=O)NC(=O)[C@@H]2CSSC[C@@H](C(=O)NCC(=O)N[C@@H](CCCCN)C(=O)N[C@@H](CCCCN)C(N)=O)NC(=O)[C@H](CCCCN)NC(=O)[C@H](CCCCN)NC(=O)[C@H](Cc3c[nH]c4ccccc34)NC(=O)[C@H](CSSC[C@H](NC(=O)[C@H](CC(C)C)NC(=O)[C@H](C)N)C(=O)N[C@@H](CC(N)=O)C(=O)N2)NC(=O)[C@H](CCC(N)=O)NC(=O)[C@H](CC(C)C)NC(=O)[C@@H]2CCCN2C(=O)[C@H]([C@@H](C)CC)NC(=O)[C@H]([C@@H](C)CC)NC1=O [Peptide 3, TPN-LQ] (H-ALCNCNRIIIPLQCWKKCGKK-NH2; disulfide 3-14, 5-18; N-terminus and C-terminus assumed)	60 to 80	–	–	–	20.9
